Measurements taken from patent US6956049B1, “Methods of modulating processes mediated by excitatory amino acid receptors” (Merck & Co., Inc., priority 1999, dated 2005).
Where a name gives a salt, the structure may show the parent alone.

Tests used:
hmGluR5a receptor = biological target: T1, hmGluR5a receptor (Homo sapiens, UniProt P41594); experiment: Calcium flux assay; assay type: cell-based; conditions: hmGluR5a/L38-20 cells (mouse fibroblast Ltk), fura-2, glutamate 10 μM (EC80); read-out: Ca^2+ Flux
T1 construct: expressed in transfected cells; host or cells: mouse fibroblast Ltk cells (hmGluR5a/L38-20 cell line)
T1 sequence (P41594 21-1180 isoform P41594-2 limits assumed): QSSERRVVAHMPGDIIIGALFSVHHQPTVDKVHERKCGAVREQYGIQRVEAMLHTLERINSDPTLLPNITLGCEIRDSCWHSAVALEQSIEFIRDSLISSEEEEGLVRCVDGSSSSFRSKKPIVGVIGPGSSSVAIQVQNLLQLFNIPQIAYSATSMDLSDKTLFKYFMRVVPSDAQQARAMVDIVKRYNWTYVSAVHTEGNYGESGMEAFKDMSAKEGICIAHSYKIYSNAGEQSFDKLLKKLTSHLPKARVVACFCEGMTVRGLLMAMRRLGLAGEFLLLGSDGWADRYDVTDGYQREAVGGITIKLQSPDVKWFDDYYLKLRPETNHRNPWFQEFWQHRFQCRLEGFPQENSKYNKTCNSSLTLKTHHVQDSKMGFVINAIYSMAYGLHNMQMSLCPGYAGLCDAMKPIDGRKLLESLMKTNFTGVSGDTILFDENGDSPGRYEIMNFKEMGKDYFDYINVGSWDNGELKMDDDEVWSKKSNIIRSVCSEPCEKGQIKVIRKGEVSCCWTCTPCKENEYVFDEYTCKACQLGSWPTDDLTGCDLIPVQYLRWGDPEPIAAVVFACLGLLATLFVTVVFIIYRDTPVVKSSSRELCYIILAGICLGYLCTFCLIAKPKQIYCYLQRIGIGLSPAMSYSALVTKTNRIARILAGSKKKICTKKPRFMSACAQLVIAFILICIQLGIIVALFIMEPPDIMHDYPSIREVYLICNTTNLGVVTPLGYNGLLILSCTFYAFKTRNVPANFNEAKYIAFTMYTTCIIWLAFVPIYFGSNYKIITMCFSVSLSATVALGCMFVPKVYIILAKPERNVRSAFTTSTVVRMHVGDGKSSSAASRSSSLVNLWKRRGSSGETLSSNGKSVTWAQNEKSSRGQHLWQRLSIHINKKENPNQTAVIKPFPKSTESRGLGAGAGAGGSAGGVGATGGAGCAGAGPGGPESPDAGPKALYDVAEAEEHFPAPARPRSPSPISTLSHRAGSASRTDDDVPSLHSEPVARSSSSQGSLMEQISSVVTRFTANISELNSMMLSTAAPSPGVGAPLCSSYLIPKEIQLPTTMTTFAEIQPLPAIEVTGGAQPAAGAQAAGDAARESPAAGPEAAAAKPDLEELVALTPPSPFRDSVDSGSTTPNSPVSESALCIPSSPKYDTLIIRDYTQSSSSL
Method: The activity of compounds was examined against the hmGluR5a receptor stably expressed in mouse fibroblast Ltk cells (the hmGluR5a/L38-20 cell line). See generally Daggett et al., Neuropharmacology 34:871–886 (1995). Receptor activity was detected by changes in intracellular calcium ([Ca^++]i) measured using the fluorescent calcium-sensitive dye, fura-2. hmGluR5a/L38-20 cells were plated onto 96-well plates, and loaded with 3 μM fura-2 for 1 h. Unincorporated dye was washed from the cells, and the cell plate was transferred to a custom-built 96-channel fluorimeter (SIBIA-SAIC, La Jolla, Calif.) which is integrated into a fully automated plate handling and liquid delivery system. Cells were excited at 350 and 385 nm with a xenon source combined with optical filters. Emitted light was collected from the sample through a dichroic mirror and a 510-nm interference filter and directed into a cooled CCD camera (Princeton Instruments). Image pairs were captured approximately every 1 s, and ratio images were generated after background subtraction. After a basal reading of 20 s, an EC80 concentration of glutamate (10 μM) was added to the well, and the response evaluated for another 60 s. The glutamate-evoked increase in [Ca^++]i in the presence of the screening compound was compared to the response of glutamate alone (the positive control).

hmGluR5 = biological target: T2, hmGluR5 (Homo sapiens, UniProt P41594); experiment: Phosphatidylinositol hydrolysis (IP1) assay; assay type: cell-based; conditions: hmGluR5/L38-20 cells (mouse fibroblast Ltk), [3H]-inositol, 10 μM glutamate, 1 hour; read-out: PI Hydrolysis
T2 construct: expressed in transfected cells; host or cells: mouse fibroblast Ltk cells (hmGluR5/L38-20 cells)
T2 sequence (P41594 21-1180 isoform P41594-2 limits assumed): as above
Method: Inositol phophate assays were performed as described by Berridge et al. (1982) (Berridge et al, (1982) Biochem. J. 206:587–5950; and Nakajima et al., J. Biol. Chem. 267:2437–2442 (1992)) with slight modifications. Mouse fibroblast Ltk cells expressing hmGluR5 (hmGluR5/L38-20 cells) were seeded in 24-well plates at a density of 8×10^5 cells/well. One μCi of [^3H]-inositol (Amersham PT6-271; Arlington Heights, Ill.; specific activity=17.7 Ci/mmol) was added to each well and incubated for 16 h at 37° C. Cells were washed twice and incubated for 45 min in 0.5 ml of standard Hepes buffered saline buffer (HBS; 125 mM NaCl, 5 mM KCl, 0.62 mM MgSO4, 1.8 mM CaCl2, 20 mM HEPES, 6 mM Glucose, pH to 7.4). The cells were washed with HBS containing 10 mM LiCl, and 400 μl buffer added to each well. Cells were incubated at 37° C. for 20 min. For testing, 50 μl of 10X compounds used in the practice of the invention (made in HBS/LiCl (100 mM)) was added and incubated for 10 minutes. Cells were activated by the addition of 10 μM glutamate, and the plates left for 1 hour at 37° C.
The incubations were terminated by the addition of 1 ml ice-cold methanol to each well. In order to isolate inositol phosphates (IPs), the cells were scraped from wells, and placed in numbered glass test tubes. One ml of chloroform was added to each tube, the tubes were mixed, and the phases separated by centrifugation. IPs were separated on Dowex anion exchange columns (AG 1-X8 100–200 mesh formate form). The upper aqueous layer (750 ul) was added to the Dowex columns, and the columns eluted with 3 ml of distilled water. The eluents were discarded, and the columns were washed with 10 mls of 60 mM ammonium formate/5 mM Borax, which was also discarded as waste. Finally the columns were eluted with 4 ml of 800 mM ammonium formate/0.1 M formic acid, and the samples collected in scintillation vials. Scintillant was added to each vial, and the vials shaken, and counted in a scintillation counter after 2 hours. Phosphatidylinositol hydrolysis in cells treated with test compounds was compared to phosphatidylinositol hydrolysis in cells treated with control and the results are shown in Table 1.

[1] = test system: male Sprague-Dawley rats, CFA-inflamed hind paw; experiment: Analgesic animal model (CFA model); assay type: in vivo; parameters: key: +++: high analgesic efficacy; conditions: rat, 240 μmol/kg intraperitoneal, evaluated one to 24 hours post administration
Method: Compounds that modulate receptor-mediated analgesic responses wer tested in an animal model. Robust inflammation was induced by the injection of complete Freund's adjuvant (CFA, 10 mg/ml) subcutaneously into the hind paw of male Sprague-Dawley rats (150–175 g). The inflammatory response to CFA began approximately 12-hrs post-CFA injection and persisted for several days following inoculation. The inflamed hind paw became sensitive to noxious (paw pinch, plantar test) or innocuous (cold plate, Von Frey filaments) stimuli compared to the contralateral hind paw. Test compounds (240 μmol/kg) were administered via intraperitoneal injection. The analgesic activity of compounds was evaluated one to 24-hours post administration by assessing (1) the duration of analgesic effect; (2) threshold to elicit response; and (3) time from painful stimulus to response. […] For each group of animals, responses following drug administration were compared to responses prior to drug administration.

[2] = Assessment of salt forms (solubility, hygroscopicity); assay type: physicochemical; conditions: salt form
Method: Various salt forms of 2-(phenylethynyl)-1,3-thiazole were prepared, and their solubility, hygroscopicity, and physical state were assessed. The compound 2-phenylethynl-1,3-thiazole was prepared (see Example 8) as well as hydrochloric acid, fumaric acid, methylsulfonic acid and toluene sulfonic acid salt forms of the compound. The hydrochloric acid salt form of 2-(phenylethynyl)-1,3-thiazole is an oil. A fumaric acid salt form was not obtained by preparative steps including trituration with diethylether. Preparation of the methylsulfonate form results in a semi solid, hygroscopic material. These salt forms are typically unsuitable for certain pharmaceutical formulations, such as for tablets, capsules, and the like. In contrast to the salt forms of 2-(phenylethynyl)-1,3-thiazole, described previously, the tosylate salt form (i.e., the toluene sulfonic acid salt) is a solid having a melting point of about 129 up to 131° C. and is non-hygroscopic. Therefore, this form is presently preferred for pharmaceutical formulations of tablets, capsules, and the like.

SMILES | IC50 (hmGluR5a receptor) [µM] | IC50 (hmGluR5) [µM] | CFA Model (analgesic efficacy) [1] | hygroscopicity [2] | solubility in aqueous medium [2] | melting point [°C]
Cc1csc(C=Cc2ccccc2)n1 (mixture of isomers) [Example 2, 4-Methyl-2-[2-phenylethenyl]-1,3-thiazole] | 0.01 to 0.1 | 10 to 100 |  |  |  | 
Cc1coc(/C=C/c2ccccc2)n1 [Example 1, 4-Methyl-2-[(E)-2-phenylethenyl]-1,3-oxazole] | 1 to 10 | 10 to 100 |  |  |  | 
Cc1nc(/C=C/c2ccccc2)cs1 [Example 3, 2-Methyl-4-[(E)-2-phenylethenyl]-1,3-thiazole] | 0.1 to 1 | 1 to 10 |  |  |  | 
Cc1nc(C#Cc2ccccc2)cs1 [Example 4, 2-Methyl-4-(phenylethynyl)-1,3-thiazole, p-toluenesulfonic acid salt] | ≤ 0.01 | ≤ 0.1 |  |  |  | 
Nc1nc(C#Cc2ccccc2)cs1 [Example 5, 4-(Phenylethynyl)-1,3-thiazol-2-amine, p-toluenesulfonic acid salt] | 0.01 to 0.1 | 0.1 to 1 |  |  |  | 
Cc1ncsc1C#Cc1ccccc1 [Example 6, 4-Methyl-5-(phenylethynyl)-1,3-thiazole] | 0.01 to 0.1 | 10 to 100 |  |  |  | 
Cc1ncsc1C#Cc1ccccc1F [Example 7, 5-[(2-Fluorophenyl)ethynyl]-4-methyl-1,3-thiazole] | 0.1 to 1 | > 100 |  |  |  | 
C(#Cc1nccs1)c1ccccc1.Cc1ccc(S(=O)(=O)O)cc1 [Example 8, 2-(Phenylethynyl)-1,3-thiazole, p-toluenesulfonic acid salt] | ≤ 0.01 | 0.1 to 1 | +++ | non-hygroscopic | soluble in aqueous medium | 
Brc1csc(C#Cc2ccccc2)n1 [Example 9, 4-bromo-2-(phenylethynyl)-1,3-thiazole] | 0.01 to 0.1 | 1 to 10 |  |  |  | 79 to 82
Cc1cnc(C#Cc2ccccc2)s1 [Example 10, 5-Methyl-2-(phenylethynyl)-1,3-thiazole] | > 10 | > 100 |  |  |  | 82 to 83
Cc1cccc(C#Cc2nccs2)c1 [Example 11, 2-[(3-methylphenyl)ethynyl]-1,3-thiazole] | 0.01 to 0.1 | 0.1 to 1 |  |  |  | 
Fc1ccc(C#Cc2nccs2)cc1 [Example 12, 2-[(4-Fluorophenyl)ethynyl]-1,3-thiazole] | 0.1 to 1 | 1 to 10 |  |  |  | 78 to 79
Fc1ccccc1C#Cc1nccs1 [Example 13, 2-[(2-Fluorophenyl)ethynyl]-1,3-thiazole] | 0.01 to 0.1 | 0.1 to 1 |  |  |  | 
Cc1nc(C#Cc2ccccc2)sc1C [Example 14, 4,5-Dimethyl-2-(phenylethynyl)-1,3-thiazole] | ≤ 0.01 | 1 to 10 |  |  |  | 55 to 60
Cc1nc(/C=C/c2ccccc2)no1 [Example 15, 5-Methyl-3-[(E)-2-phenylethenyl]-1,2,4-oxadiazole] | > 10 | > 100 |  |  |  | 166 to 168
C(=C\c1ncno1)/c1ccccc1 [Example 16, 5-[(E)-2-phenylethenyl]-1,2,4-oxadiazole] | > 10 | > 100 |  |  |  | 53 to 55
Cn1ncnc1/C=C/c1ccccc1 [Example 17, 1-Methyl-5-[(E)-2-phenylethenyl]-1H-1,2,4-triazole] | > 10 | > 100 |  |  |  | 67 to 70
Cc1n[nH]c(/C=C/c2ccccc2)n1 [Example 18, 3-Methyl-5-[(E)-2-phenylethenyl]-1H-1,2,4-triazole] | > 10 | > 100 |  |  |  | 131 to 134
CCOC(=O)c1nc(/C=C/c2ccccc2)ns1 [Example 19, Ethyl 3-[(E)-2-phenylethenyl]-1,2,4-thiadiazole-5-carboxylate] | 0.1 to 1 | 10 to 100 |  |  |  | 79 to 80
OCc1nc(/C=C/c2ccccc2)ns1 [Example 20, {3-[(E)-2-phenylethenyl]-1,2,4-thiadiazol-5-yl}methanol] | 1 to 10 | > 100 |  |  |  | 119 to 120
Cc1ccc(C#CC2=CCCCC2)s1 [Example 21, 2-(1-Cyclohexen-1-ylethynyl)-5-methylthiophene] | > 10 | > 100 |  |  |  | 
C(#Cc1nccs1)c1ccccc1 [methylsulfonate form, 2-(phenylethynyl)-1,3-thiazole] |  |  |  | hygroscopic |  | 
